# Results reported in the supplement of paper PMC10307832.
# Experiments:
# Assay in all cases: relative viability (nuclei count vs DMSO), 5 days (fraction); higher = more cells survive
# BX 795 + Tozasertib = compound: O=C(NCCCNc1nc(Nc2cccc(NC(=O)N3CCCC3)c2)ncc1I)c1cccs1 [BX 795] + Cc1cc(Nc2cc(N3CCN(C)CC3)nc(Sc3ccc(NC(=O)C4CC4)cc3)n2)n[nH]1 [Tozasertib] (partner 0.1 µM)
# In short: (§1)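 Relative viability is defined as nuclei in treated wells over nuclei in vehicle wells. Duplicate plates were run and medians reported. Lung cancer cell lines in 1536-well plates were dosed by pin tool one day after seeding, with one drug or with a fixed anchor-drug dose plus five library-drug doses (not always all listed) in √10 steps, and nuclei were counted after 5 days.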
# BX 795 + Dasatinib = compound: O=C(NCCCNc1nc(Nc2cccc(NC(=O)N3CCCC3)c2)ncc1I)c1cccs1 [BX 795] + Cc1nc(Nc2ncc(C(=O)Nc3c(C)cccc3Cl)s2)cc(N2CCN(CCO)CC2)n1 [Dasatinib] (partner 0.075 µM)
# In short: as §1
# BX 795 + Linsitinib = compound: O=C(NCCCNc1nc(Nc2cccc(NC(=O)N3CCCC3)c2)ncc1I)c1cccs1 [BX 795] + C[C@]1(O)C[C@@H](c2nc(-c3ccc4ccc(-c5ccccc5)nc4c3)c3c(N)nccn32)C1 [Linsitinib] (partner 1 µM)
# In short: as §1
# BX 795 + Crizotinib = compound: O=C(NCCCNc1nc(Nc2cccc(NC(=O)N3CCCC3)c2)ncc1I)c1cccs1 [BX 795] + C[C@@H](Oc1cc(-c2cnn(C3CCNCC3)c2)cnc1N)c1c(Cl)ccc(F)c1Cl [Crizotinib] (partner 1 µM)
# In short: as §1
# BX 795 + OSI-027 = compound: O=C(NCCCNc1nc(Nc2cccc(NC(=O)N3CCCC3)c2)ncc1I)c1cccs1 [BX 795] + COc1cccc2cc(-c3nc([C@H]4CC[C@H](C(=O)O)CC4)n4ncnc(N)c34)[nH]c12 [OSI-027] (partner 0.5 µM)
# In short: as §1
Cell Line,relative viability (BX 795 + Tozasertib; first compound 0.04 µM),relative viability (BX 795 + Tozasertib; first compound 0.1265 µM),relative viability (BX 795 + Tozasertib; first compound 0.4 µM),relative viability (BX 795 + Tozasertib; first compound 1.265 µM),relative viability (BX 795 + Dasatinib; first compound 0.04 µM),relative viability (BX 795 + Dasatinib; first compound 0.1265 µM),relative viability (BX 795 + Dasatinib; first compound 0.4 µM),relative viability (BX 795 + Dasatinib; first compound 1.265 µM),relative viability (BX 795 + Linsitinib; first compound 0.04 µM),relative viability (BX 795 + Linsitinib; first compound 0.1265 µM),relative viability (BX 795 + Linsitinib; first compound 0.4 µM),relative viability (BX 795 + Linsitinib; first compound 1.265 µM),relative viability (BX 795 + Crizotinib; first compound 0.04 µM),relative viability (BX 795 + Crizotinib; first compound 0.1265 µM),relative viability (BX 795 + Crizotinib; first compound 0.4 µM),relative viability (BX 795 + Crizotinib; first compound 1.265 µM),relative viability (BX 795 + OSI-027; first compound 0.04 µM),relative viability (BX 795 + OSI-027; first compound 0.1265 µM),relative viability (BX 795 + OSI-027; first compound 0.4 µM),relative viability (BX 795 + OSI-027; first compound 1.265 µM)
NCI-H1355,0.589,0.442,0.486,0.385,0.763,0.659,0.684,0.664,0.768,0.869,0.811,0.65,1.03,0.937,1.1,0.961,0.407,0.405,0.44,0.379
HCC-827,0.416,0.45,0.429,0.417,0.334,0.375,0.307,0.414,0.972,0.849,0.987,0.75,0.935,0.923,0.892,0.712,0.839,0.81,0.933,0.763
LCLC-103H,0.476,0.475,0.477,0.379,0.55,0.481,0.553,0.412,1.12,1.16,0.901,1.09,0.979,1.1,1.01,1.04,0.476,0.528,0.488,0.501
NCI-H1915,0.473,0.413,0.405,0.241,0.323,0.285,0.306,0.29,1.16,1.09,1.08,1.02,0.904,0.95,0.85,0.765,0.7,0.6,0.663,0.469
NCI-H460,0.497,0.44,0.0824,0.184,0.491,0.474,0.385,0.385,0.708,1.01,0.605,0.281,0.859,1.17,0.684,0.192,0.633,0.561,0.543,0.224
SW 1573,0.209,0.185,0.142,0.155,0.512,0.456,0.452,0.161,0.962,0.873,1.02,0.629,0.832,0.887,0.584,0.667,0.684,0.686,0.614,0.322
NCI-H23,0.327,0.639,0.314,0.234,0.871,0.8,0.507,0.884,0.584,0.655,0.441,0.387,0.459,0.503,0.374,0.257,0.6,0.701,0.621,0.506
BEN,0.606,0.447,0.523,0.44,0.334,0.315,0.367,0.299,0.996,0.944,0.842,0.864,0.984,1.02,0.787,0.821,0.264,0.297,0.257,0.26
